Source: patent EP4666996A1, “COMPOSITION CONTAINING PEPTIDES OF VEGETABLE ORIGIN” (Quiris Healthcare GmbH & Co. KG, priority 2024, dated 2025)
Read-outs that look alike come from different tables or passages of the source. No end group written: not given here.

Legend:
Caco-2 cells [1] = assay: Trans-epithelial transport of digested and non-digested hydrolysates, LC-MS/MS of AP and BL samples; conditions: without H2O2; for common sequences in AP pea digested vs. BL pea digested samples: digested pea hydrolysate; for detection in the AP pea and BL pea samples: non-digested pea hydrolysate; for common sequences in BL rice digested vs. BL rice not digested samples: rice hydrolysates
Description: (§5) Caco-2 cells, obtained from INSERM (Paris, France) were routinely sub-cultured at 50% confluence and maintained at 37°C in a 5% CO2 atmosphere in DMEM containing 25 mM of glucose, 3.7 g/L of NaHCOs, 4 mM of stable L-glutamine, 1% non-essential amino acids, 100 U/L of penicillin and 100 µg/L of streptomycin (complete medium), supplemented with 10% heat-inactivated FBS. To facilitate the establishment of a confluent cell monolayer, cells were seeded on a Transwell at a density of 3.5 × 10^5 cells/cm^2 in complete medium supplemented with 10% FBS in both the AP and BL compartments for a period of 2 days. Cells were seeded, and on day three, they were moved to an FBS-free medium in the AP compartment. They were then allowed to differentiate for 18-21 days, with three weekly medium changes in between. Transepithelial electrical resistance (TEER) of differentiated Caco-2 cells was measured at 37 °C using the Millicell voltmeter device (Millipore Co., Billerica, MA, USA) both before and after the transport experiments for monitoring the integrity of the cell monolayers.
(§6) TEER measurement was used to verify the integrity and differentiation of the cell monolayer prior to transport experiments. Pea and rice peptides trans-epithelial transit was assessed in differentiated Caco-2 cells in transport buffer solution (137 mM NaCl, 5.36 mM KCl, 1.26 mM CaCl2, and 1.1 mM MgCl2, 5.5 mM glucose). The apical (AP) solutions were kept at pH 6.0 (buffered with 10 mM morpholinoethane sulfonic acid) and the basolateral (BL) solutions were kept at pH 7.4 (buffered with 10 mM N-2-hydroxyethylpiperazine-N-4-butanesulfonic acid) in order to replicate the pH conditions found in vivo in the small intestinal mucosa. Before the transport assay, cells were equilibrated in HBSS for 15 minutes at 37°C. In the AP compartment with the AP transport solution (500 µL) and the BL compartment with the BL transport solution (700 µL), rice and pea (5 mg/mL) were added. All BL and AP solutions were collected after two hours of absorption experiment carried out at 37°C, and they were kept at - 80°C before analysis. Transport experiments were performed in duplicate.
(§7) The enzymatic hydrolysis of pea and rice peptides was performed using pepsin and trypsin to simulate gastrointestinal digestion. For pepsin and trypsin digestion, the pH of the solution was adjusted to pH 2 and 8, respectively, by adding 1 M HCl or 1 M NaOH. The pepsin and trypsin solutions were added to the solution at a 1:100 (w/w) E/S ratio. After 60 min of peptic digestion at 37°C, pepsin was inactivated by adjusting the pH to 8; whereas the tryptic digestion (15 minutes) was blocked by heating the solution at 95 °C for 5 min (Lo et al., 2005). Collagen, pea and rice hydrolysates were passed through ultrafiltration membranes for the complete enzymes removal, using a Millipore UF system (Millipore, Bedford, MA, USA). Recovered peptides were lyophilized and stored at -80 °C for high-resolution LC-MS/MS analysis.

BJ-5ta cells = assay: Cell viability assay (MTT); assay type: cell-based
Description: (§1) Fibroblast cells (BJ-5ta, CRL-4001) were cultured in complete medium, a 4:1 mixture of Dulbecco's medium and Medium 199 with supplements as 4 parts of Dulbecco's Modified Eagle's Medium containing 4 mM L-glutamine, 4.5 g/L glucose and 1.5 g/L sodium bicarbonate, 1 part of Medium 199 supplemented with 0.01 mg/mL hygromycin B 10% fetal bovine serum with incubation at 37 °C under 5% CO2 atmosphere.
A total of 10^4 fibroblasts/well were seeded in 96-well plates and treated with pea, rice and collagen peptides (from 1 to 20 mg/mL) and ascorbic acid (from 0.1 to 10 mg/mL), CR1, CR2, CP1, CP2, CP3, CP4 and CP5 peptides (from 25 to 500 µM) or H2O2 (from 0.1 to 1 mg/mL) or vehicle (H2O) in complete growth media for 48 h at 37 °C under 5% CO2 atmosphere. Subsequently, the treatment solvent was aspirated and 100 µL/well of 3-(4,5-dimethylthiazol-2-yl)-2,5-diphenyltetrazolium bromide (MTT) filtered solution added. After 2 h of incubation at 37 °C under 5% CO2 atmosphere, 0.5 mg/mL solution was aspirated and 100 µL/well of the lysis buffer (8 mM HCl + 0.5% NP-40 in DMSO) added. After 10 min of slow shaking, the absorbance at 575 nm was read on the Synergy H1 fluorescence plate reader (Biotek, Bad Friedrichshall, Germany).
In this example, the effect of pea and rice peptides was tested on BJ-5ta cells in a modified MTT assay as described above. […]

elastin [2] = assay: ELISA assay, elastin secretion; assay type: cell-based, human
Description: (§2) Cytokines, metalloproteases, collagen and elastin quantification was performed using human Authentikine® ELISA kits (Proteintech, Rosemont, USA) and Cusabio ELISA kits (Houston, TX, USA) according to the manufacturer's instruction and. Briefly, the supernatants collected from treated and H20-stimulated bj-5ta cells were centrifuged at 13,300 × g for 10 minutes at 4°C, then the pellet and insoluble material were discarded. For the experiments, 100 µL of samples were added to each well and the microplate was incubated for 2 hours at 37°C. After the incubation, the solutions were discarded and each well washed 4 times with 300 µL of Wash Buffer solution, then 100 µL of Detection antibody solution were added to each well and the microplate was incubated for 1 hours at 37°C. […] After 4 washes, the TMB substrate (100 µL/well) was added and reactions were stopped after 20 min with 50 µL of Stop Solution and the absorbance at 450 and 540 nm was measured using the Synergy H1 plate reader (BioTek Instruments).
(§3) In this example, the secretion of collagen and elastin with pea and rice peptides was tested in vitro by an ELISA assay as described above. Thereby, ECM stability is evaluated.
(§4) In this example, the secretion of collagen and elastin with the peptides of Table 1 was tested in vitro by an ELISA assay as described above. Thereby, ECM stability is evaluated.

ABTS assay = assay type: biochemical
Description: The ABTS assay is based on the reduction of the 2,2-azino-bis-(3-ethylbenzothiazoline-6-sulfonic acid (ABTS) radical induced by antioxidants. The ABTS radical cation (ABTS+● was prepared by mixing a 7 mM ABTS solution (Sigma-Aldrich, Milan, Italy) with 2.45 mM potassium persulfate (1:1) and stored for 16 h at room temperature and in dark. To prepare the ABTS reagent, the ABTS+● was diluted in 5 mM phosphate buffer (pH 7.4) to obtain a stable absorbance of 0.700 (±0.02) at 730 nm. For the assay, 10 µL of samples were added to 140 µL of diluted the ABTS+● at the following final concentrations: 0.01 and 0.1 mg/mL for pea and rice peptides; 0.1, 1, 10 and 20 mg/mL for collagen peptides; 0.0001, 0.001 and 0.01 mg/mL for ascorbic acid; 1, 10, 25, 50, 100 µM for CR1, CP1 and CP2 peptides. The microplate was incubated for 30 min at 30 °C and the absorbance was read at 730 nm using a Synergy™ HT-multimode microplate reader (Biotek Instruments, Winooski, VT, USA). The TEAC values were calculated using a Trolox (Sigma-Aldrich, Milan, Italy) calibration curve (60-320 µM).
In this example, the antioxidant activity of pea and rice peptides was tested in vitro in an ABTS Assay as described above.
In this example, the antioxidant activity of peptides CP1, CP2 and CR1 (see Table 1 above) was tested in vitro in an ABTS Assay as described above.

elastin [3] = assay: Western blot analysis, elastin protein level; assay type: cell-based
Description: as §1
A total of 2.2 × 10^5 BJ-5ta cells/well were seeded on 24-well plates and incubated at 37 °C under a 5% CO2 atmosphere. The following day, cells were treated with pea, rice and collagen peptides (5 mg/mL), CR1, CR2, CP1, CP4 and CP5 (250 and 500 µM), CP2 (100, 250 and 500 µM) or vehicle (H2O) in a complete growth medium for 24 h. The day after, cells were stimulated with H2O2 (200 µM) or vehicle (H2O) for 1 h. After each treatment, cells were scraped in 30 µL ice-cold lysis buffer [RIPA buffer + inhibitor cocktail + 1:100 PMSF + 1:100 Na-orthovanadate] and transferred in an ice-cold microcentrifuge tube. After centrifugation at 13.300g for 15 min at 4 °C, the supernatant was recovered and transferred into a new ice-cold tube. Total proteins were quantified by Bradford method and 50 µg of total proteins loaded on a precast 7.5% Sodium Dodecyl Sulfate - Polyacrylamide (SDS-PAGE) gel at 130 V for 45 min. Subsequently, the gel was pre-equilibrated with 0.04% SDS in H2O for 15 min at RT and transferred to a nitrocellulose membrane (Mini nitrocellulose Transfer Packs,) using a trans-Blot Turbo at 1.3 A, 25 V for 7 min. Target proteins, on milk or BSA blocked membrane, were detected by primary antibodies as follows: anti-collagen, anti-elastin, anti-phospho(Thr172)-AMPK, anti-phospho(Ser473)-Akt, anti-NF-κB and anti-β-actin. Secondary antibodies conjugated with HRP and a chemiluminescent reagent were used to visualize target proteins and their signal was quantified using the Image Lab Software (Biorad). The internal control β-actin was used to normalize loading variations. […]

collagen [4] = assay: Western blot analysis, collagen protein level; assay type: cell-based
Description: as §1
A total of 2.2 × 10^5 BJ-5ta cells/well were seeded on 24-well plates and incubated at 37 °C under a 5% CO2 atmosphere. The following day, cells were treated with pea, rice and collagen peptides (5 mg/mL), CR1, CR2, CP1, CP4 and CP5 (250 and 500 µM), CP2 (100, 250 and 500 µM) or vehicle (H2O) in a complete growth medium for 24 h. The day after, cells were stimulated with H2O2 (200 µM) or vehicle (H2O) for 1 h. […] Total proteins were quantified by Bradford method and 50 µg of total proteins loaded on a precast 7.5% Sodium Dodecyl Sulfate - Polyacrylamide (SDS-PAGE) gel at 130 V for 45 min. […] Target proteins, on milk or BSA blocked membrane, were detected by primary antibodies as follows: anti-collagen, anti-elastin, anti-phospho(Thr172)-AMPK, anti-phospho(Ser473)-Akt, anti-NF-κB and anti-β-actin. Secondary antibodies conjugated with HRP and a chemiluminescent reagent were used to visualize target proteins and their signal was quantified using the Image Lab Software (Biorad). […]

collagen [5] = assay: ELISA assay, collagen secretion; assay type: cell-based, human; conditions: peptides of Table 1, BJ-5ta cells
Description: as §2, §3, §4

FRAP assay [6] = assay type: biochemical; conditions: synthesized peptides up to 200 µM
Description: The FRAP assay evaluates the ability of a sample to reduce ferric ion (Fe3^+) into ferrous ion (Fe2^+). Thus, 10 µL of samples were mixed with 140 µL of FRAP reagent until reaching the following concentrations: 0.01, 0.1 and 1 mg/mL for pea and rice peptides; 1, 10 and 20 mg/mL for collagen peptides; 0.00001, 0.0001, 0.001 and 0.1 mg/mL for ascorbic acid; 10, 100 and 200 µM for CR1 and CP5 peptides; 25, 50, 100 and 200 µM for CP1 and CP2 peptides. The FRAP reagent was prepared by mixing 1.3 mL of a 10 mM TPTZ (Sigma-Aldrich, Milan, Italy) solution in 40 mM HCl, 1.3 mL of 20 mM FeCl3 × 6H2O and 13 mL of 0.3 M acetate buffer (pH 3.6). The microplate was incubated for 30 min at 37 °C and the absorbance was read at 595 nm. The results were calculated by a Trolox (Sigma-Aldrich, Milan, Italy) standard curve obtained using different concentrations (3-400 µM)). Absorbances were recorded on a Synergy™ HT-multimode microplate reader.
In this example, the antioxidant activity of pea and rice peptides was tested in vitro in a FRAP Assay as described above.
In this example, the antioxidant activity of peptides CP1, CP2, CP5 and CR1 was tested in vitro in a FRAP Assay as described above.

Caco-2 cells [7] = tested on: Caco-2 cells
Description: as §5, §6, §7

FRAP assay [8] = assay type: biochemical; conditions: pea and rice peptides 0.01-1 mg/mL; collagen 1-20 mg/mL; ascorbic acid 0.00001-0.1 mg/mL
[9] = 250 µM, screening among CR1, CR2, CP1, CP2, CP4, CP5
[10] = 500 µM, among CR1, CR2, CP1, CP2, CP4, CP5

Compound: SEQ-ID:35: peptide identified by MS in pea hydrolysate; sequence not printed in the text (SVFNGEVR; listed as Pisum sativum)
- common sequences in AP pea digested vs. BL pea digested samples (Caco-2 cells [1]): found

Compound: SEQ-ID:2: peptide identified by MS in pea hydrolysate; sequence not printed in the text (DTSETWAIR; listed as Pisum sativum)
- common sequences in AP pea digested vs. BL pea digested samples (Caco-2 cells [1]): found
- detection in the AP pea and BL pea samples (Caco-2 cells [1]): detected

Compound: ENIADAAR [CP3, ENIADAAR]
- common sequences in AP pea digested vs. BL pea digested samples (Caco-2 cells [1]): found
- detection in the AP pea and BL pea samples (Caco-2 cells [1]): detected

Compound: SEQ-ID:12: peptide identified by MS in pea hydrolysate; sequence not printed in the text (SSNNQLDQMPR; listed as Pisum sativum)
- common sequences in AP pea digested vs. BL pea digested samples (Caco-2 cells [1]): found
- detection in the AP pea and BL pea samples (Caco-2 cells [1]): detected

Compound: DWLLGATGTGK (DVVLLGATGTGK; listed as Oryza sativa) [CR3]
- common sequences in BL rice digested vs. BL rice not digested samples (Caco-2 cells [1]): found

Compound: OO [H2O2]
- concentration up to which no cytotoxic effects (BJ-5ta cells; skin fibroblasts exposed to increasing concentration of H2O2): ≤ 400 µM

Compound: DWPEWVR [CP2, synthesized pea peptide]
- common sequences in AP pea digested vs. BL pea digested samples (Caco-2 cells [1]): found
- detection in the AP pea and BL pea samples (Caco-2 cells [1]): detected
- stimulation of elastin secretion (elastin [2]; CP2 at 100 µM versus other peptides at 500 µM): higher than for the other tested peptides at a concentration of 500 µM
- stimulation of elastin secretion (elastin [2]; peptides of Table 1, BJ-5ta cells): strongest stimulation of elastin secretion
- ABTS radical scavenging activity compared with CR1 (ABTS assay; synthesized peptides 1-100 µM): lower than with CR1
- ABTS radical scavenging activity, dependence on concentration (ABTS assay; synthesized peptides 1-100 µM): decreases with increasing concentration
- ABTS radical scavenging activity (ABTS assay; synthesized peptides 1-100 µM, compared to control C): lower than the one of the control C
- modulation of elastin protein level (elastin [3]; [9]): highest modulation of elastin protein level
- modulation of elastin protein level compared to CP4 and CP5 (elastin [3]; 500 µM): higher modulation of elastin protein level compared to CP4 and CP5
- modulation of elastin protein level (elastin [3]; [10]): highest modulation of elastin protein level
- modulation of collagen protein level (collagen [4]; [9]): highest modulation of collagen protein level
- modulation of collagen protein level (collagen [4]; [10]): highest modulation of collagen protein level
- stimulation of collagen secretion (collagen [5]): strongest stimulation of collagen secretion
- ferric reducing antioxidant power compared with CR1 (FRAP assay [6]): higher than with CR1
- ferric reducing antioxidant power, dependence on concentration (FRAP assay [6]): increases with increasing concentration
- ferric reducing antioxidant power (FRAP assay [6]; compared to control C): higher than the control C

Compound: AGFAGDDAPR [CR2, AGFAGDDAPR]
- common sequences in BL rice digested vs. BL rice not digested samples (Caco-2 cells [7]): found

Compound: GSRQEEEEDEDEERQPR [CP4, GSRQEEEEDEDEERQPR]
- common sequences in AP pea digested vs. BL pea digested samples (Caco-2 cells [1]): found
- detection in the AP pea and BL pea samples (Caco-2 cells [1]): detected

Compound: O=C1O[C@H]([C@@H](O)CO)C(O)=C1O [ascorbic acid]
- concentrations with effects on cellular viability (BJ-5ta cells; BJ-5ta cells, 48 h): more than 1 mg/mL
- ABTS radical scavenging activity, dependence on concentration (ABTS assay; pea and rice peptides 0.01 and 0.1 mg/mL, collagen 0.1-20 mg/mL, ascorbic acid 0.0001-0.01 mg/mL): decreasing radical scavenging activity with increasing concentration
- ferric reducing antioxidant power, dependence on concentration (FRAP assay [8]): increase

Compound: SEQ-ID:15: peptide identified by MS in pea hydrolysate; sequence not printed in the text (LDEAAEPAALER; listed as Pisum sativum)
- common sequences in AP pea digested vs. BL pea digested samples (Caco-2 cells [1]): found

Compound: AEDVGEEVER [CR1, AEDVGEEVER]
- common sequences in BL rice digested vs. BL rice not digested samples (Caco-2 cells [1]): found
